Source: the CheMixHub viscosity set

Assay: xn = mol fraction of the nth substance listed

C1CCCCC1 + CCCCCCC
Conditions | viscosity [mPa·s]
298.15 K, 101 kPa, x1 = 0.3947 | 0.588
298.15 K, 101 kPa, x1 = 0.4171 | 0.598
298.15 K, 101 kPa, x1 = 0.4283 | 0.604
298.15 K, 101 kPa, x1 = 0.4413 | 0.612
298.15 K, 101 kPa, x1 = 0.4536 | 0.618
298.15 K, 101 kPa, x1 = 0.4623 | 0.622
298.15 K, 101 kPa, x1 = 0.469 | 0.626
298.15 K, 101 kPa, x1 = 0.4767 | 0.629
298.15 K, 101 kPa, x1 = 0.4813 | 0.631
298.15 K, 101 kPa, x1 = 0.4869 | 0.634
298.15 K, 101 kPa, x1 = 0.4921 | 0.636
298.15 K, 101 kPa, x1 = 0.4949 | 0.638
298.15 K, 101 kPa, x1 = 0.499 | 0.64
298.15 K, 101 kPa, x1 = 0.5069 | 0.644
298.15 K, 101 kPa, x1 = 0.5154 | 0.648
298.15 K, 101.33 kPa, x1 = 0.1013 | 0.406
298.15 K, 101.33 kPa, x1 = 0.1036 | 0.4183
298.15 K, 101.33 kPa, x1 = 0.2023 | 0.4381
298.15 K, 101.33 kPa, x1 = 0.2027 | 0.425
298.15 K, 101.33 kPa, x1 = 0.2962 | 0.46
298.15 K, 101.33 kPa, x1 = 0.304 | 0.448
298.15 K, 101.33 kPa, x1 = 0.3888 | 0.484
298.15 K, 101.33 kPa, x1 = 0.4037 | 0.475
298.15 K, 101.33 kPa, x1 = 0.4752 | 0.512
298.15 K, 101.33 kPa, x1 = 0.4998 | 0.505
298.15 K, 101.33 kPa, x1 = 0.5556 | 0.5415
298.15 K, 101.33 kPa, x1 = 0.6018 | 0.546
298.15 K, 101.33 kPa, x1 = 0.6389 | 0.5789
298.15 K, 101.33 kPa, x1 = 0.6985 | 0.594
298.15 K, 101.33 kPa, x1 = 0.7049 | 0.6136
298.15 K, 101.33 kPa, x1 = 0.7751 | 0.6582
298.15 K, 101.33 kPa, x1 = 0.8024 | 0.661
298.15 K, 101.33 kPa, x1 = 0.8468 | 0.7195
298.15 K, 101.33 kPa, x1 = 0.9002 | 0.751
298.15 K, 101.33 kPa, x1 = 0.9096 | 0.7778
298.15 K, 101.33 kPa, x1 = 0.9735 | 0.8588
298.15 K, 101.33 kPa, x2 = 0.1008 | 0.776
298.15 K, 101.33 kPa, x2 = 0.2001 | 0.68
298.15 K, 101.33 kPa, x2 = 0.2493 | 0.641
298.15 K, 101.33 kPa, x2 = 0.3511 | 0.578
298.15 K, 101.33 kPa, x2 = 0.4012 | 0.556
298.15 K, 101.33 kPa, x2 = 0.4993 | 0.52
298.15 K, 101.33 kPa, x2 = 0.5726 | 0.483
298.15 K, 101.33 kPa, x2 = 0.6007 | 0.479
298.15 K, 101.33 kPa, x2 = 0.7471 | 0.447
298.15 K, 101.33 kPa, x2 = 0.8984 | 0.409
303.15 K, 101 kPa, x1 = 0.0998 | 0.3894
303.15 K, 101 kPa, x1 = 0.2012 | 0.4064
303.15 K, 101 kPa, x1 = 0.298 | 0.4275
303.15 K, 101 kPa, x1 = 0.3986 | 0.454
303.15 K, 101 kPa, x1 = 0.5009 | 0.4857
303.15 K, 101 kPa, x1 = 0.5994 | 0.524
303.15 K, 101 kPa, x1 = 0.7025 | 0.5716
303.15 K, 101 kPa, x1 = 0.7975 | 0.6321
303.15 K, 101 kPa, x1 = 0.9009 | 0.7191
303.15 K, 101.33 kPa, x1 = 0.1013 | 0.386
303.15 K, 101.33 kPa, x1 = 0.2027 | 0.402
303.15 K, 101.33 kPa, x1 = 0.304 | 0.422
303.15 K, 101.33 kPa, x1 = 0.4037 | 0.447
303.15 K, 101.33 kPa, x1 = 0.4998 | 0.477
303.15 K, 101.33 kPa, x1 = 0.6018 | 0.512
303.15 K, 101.33 kPa, x1 = 0.6985 | 0.556
303.15 K, 101.33 kPa, x1 = 0.8024 | 0.619
303.15 K, 101.33 kPa, x1 = 0.9002 | 0.694
308.15 K, 101.33 kPa, x1 = 0.1013 | 0.365
308.15 K, 101.33 kPa, x1 = 0.2027 | 0.379
308.15 K, 101.33 kPa, x1 = 0.304 | 0.399
308.15 K, 101.33 kPa, x1 = 0.4037 | 0.422
308.15 K, 101.33 kPa, x1 = 0.4998 | 0.448
308.15 K, 101.33 kPa, x1 = 0.6018 | 0.481
308.15 K, 101.33 kPa, x1 = 0.6985 | 0.52
308.15 K, 101.33 kPa, x1 = 0.8024 | 0.577
308.15 K, 101.33 kPa, x1 = 0.9002 | 0.643

COC(C)=O + COCCO
viscosity [mPa·s], 101 kPa
Conditions | x2 = 0.0993 | x2 = 0.2004 | x2 = 0.2993 | x2 = 0.4009 | x2 = 0.4996 | x2 = 0.6014 | x2 = 0.7013 | x2 = 0.8006 | x2 = 0.9001
298.15 K | 0.429 | 0.484 | 0.549 | 0.636 | 0.729 | 0.862 | 1.012 | 1.218 | 1.453
303.15 K | 0.407 | 0.457 | 0.517 | 0.596 | 0.679 | 0.797 | 0.929 | 1.112 | 1.317
308.15 K | 0.387 | 0.432 | 0.486 | 0.556 | 0.632 | 0.738 | 0.858 | 1.025 | 1.2

CCC(C)=O + CC(C)O
101 kPa
Conditions | viscosity [mPa·s]
308.15 K, x1 = 0.1282 | 1.095
313.15 K, x1 = 0.0595 | 1.165

COC(C)=O + C1COCCO1
303.15 K, 101.3 kPa
Conditions | viscosity [mPa·s]
x2 = 0.1026 | 0.3813
x2 = 0.3032 | 0.4727
x2 = 0.5004 | 0.5895
x2 = 0.7187 | 0.7642
x2 = 0.8981 | 0.9562

COc1ccccc1N + CCCC(=O)O
viscosity [mPa·s], 100 kPa
Conditions | x1 = 0.1187 | x1 = 0.1967 | x1 = 0.2806 | x1 = 0.3708 | x1 = 0.5026 | x1 = 0.6111 | x1 = 0.6888 | x1 = 0.7711 | x1 = 0.9041
303.15 K | 1.813 | 2.094 | 2.394 | 2.716 | 3.184 | 3.567 | 3.839 | 4.126 | 4.589
308.15 K | 1.646 | 1.911 | 2.194 | 2.497 | 2.937 | 3.298 | 3.554 | 3.824 | 4.259
313.15 K | 1.478 | 1.726 | 1.992 | 2.276 | 2.689 | 3.027 | 3.266 | 3.519 | 3.926
318.15 K | 1.313 | 1.547 | 1.796 | 2.063 | 2.451 | 2.768 | 2.992 | 3.229 | 3.611
